{"source": "patent EP4559916A1", "about": "“PHARMACEUTICALLY ACCEPTABLE SALT AND POLYMORPH OF SUBSTITUTED PYRAZOLO[1,5-A]PYRIMIDIN-7-AMINE DERIVATIVE AND USE THEREOF” (Shanghai Haiyan Pharmaceutical Technology Co., Ltd., priority 2022, dated 2024)", "key": {"[1]": {"assay": "physchem", "conditions": "water"}, "[2]": {"molecular_target": "T1, CDK9/CycT (Homo sapiens, UniProt P50750)", "T1 construct": "purchased Carna Bioscience 04-110", "T1 sequence (P50750 whole entry)": "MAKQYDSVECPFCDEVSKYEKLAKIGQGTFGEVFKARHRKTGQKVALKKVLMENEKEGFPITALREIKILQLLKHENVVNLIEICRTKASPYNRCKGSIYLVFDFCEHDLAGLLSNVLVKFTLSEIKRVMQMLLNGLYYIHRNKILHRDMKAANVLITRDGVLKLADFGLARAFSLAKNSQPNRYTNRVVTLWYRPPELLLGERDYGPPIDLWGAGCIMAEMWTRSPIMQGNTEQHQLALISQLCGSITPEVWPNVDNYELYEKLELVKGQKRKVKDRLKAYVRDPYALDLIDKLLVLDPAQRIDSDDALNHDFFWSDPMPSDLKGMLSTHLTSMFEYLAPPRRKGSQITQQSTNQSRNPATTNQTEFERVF", "T1 sequence (O60563 whole entry partner)": "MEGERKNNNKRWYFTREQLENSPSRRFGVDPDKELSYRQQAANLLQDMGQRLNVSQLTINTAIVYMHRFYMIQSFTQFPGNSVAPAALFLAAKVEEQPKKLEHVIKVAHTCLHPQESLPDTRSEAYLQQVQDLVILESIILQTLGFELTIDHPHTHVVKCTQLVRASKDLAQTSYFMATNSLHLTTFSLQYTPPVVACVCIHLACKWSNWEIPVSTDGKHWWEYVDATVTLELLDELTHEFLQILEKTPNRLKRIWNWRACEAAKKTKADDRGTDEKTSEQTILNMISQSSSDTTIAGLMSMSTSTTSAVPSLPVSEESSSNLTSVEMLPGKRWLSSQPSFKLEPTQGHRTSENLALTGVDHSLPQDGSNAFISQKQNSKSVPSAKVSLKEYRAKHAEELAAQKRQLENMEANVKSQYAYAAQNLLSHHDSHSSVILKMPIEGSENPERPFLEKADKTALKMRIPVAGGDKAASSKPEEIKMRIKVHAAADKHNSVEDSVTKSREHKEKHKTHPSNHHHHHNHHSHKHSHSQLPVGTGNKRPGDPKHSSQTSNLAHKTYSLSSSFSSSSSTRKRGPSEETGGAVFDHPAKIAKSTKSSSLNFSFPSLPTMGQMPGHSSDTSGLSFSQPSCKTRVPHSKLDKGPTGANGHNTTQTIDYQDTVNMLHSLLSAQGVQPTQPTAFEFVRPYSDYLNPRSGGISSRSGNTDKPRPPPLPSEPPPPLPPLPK", "assay": "LANCE Ultra kinase activity inhibition test, CDK9", "assay_type": "biochemical", "conditions": "ATP 10 µM", "text": "In the following LANCE Ultra test method, kinase reagents were purchased from Carna Bioscience, reaction substrates and detection reagents were purchased from Perkin Elmer, and the remaining reagents were purchased from Thermo scientific.\nThe LANCE Ultra method was used to determine the inhibitory effect of the test substance on the kinase activity of CDK1/CycB (Carna bioscience, #04-102), CDK2/ CycA (Carna bioscience, #04-103), CDK9/CycT (Carna bioscience, #04-110).\nEach kinase in the test included three test groups: background group (Blank), non-inhibition group (PC) and compound test group (Test). […]\nAfter the addition of the test solution, it was placed on a shaker and incubated at room temperature for 1 h in the dark. […] The 665 nm/615 nm values (hereinafter referred to as the Ratio value) were calculated for all groups, and the inhibition rate was calculated based on the Ratio value of each group; 2. […] XLFIT 5.0 software (IDBS, UK) was used for fitting, with logarithmic values of compound concentrations as the X axis and inhibition rates as the Y axis, and IC50 values of compounds were calculated using a four-parameter model."}, "[3]": {"assay": "In vivo pharmacokinetic test in mice", "conditions": "male ICR mice, gavage administration 10 mg/kg", "protocol": "Test animals: healthy adult male ICR mice (weighing 30-40 g, 12 mice, intravenous injection group mice drinking water and diet ad libitum, gavage group fasting overnight, drinking water and diet ad libitum 4 h after administration), provided by Beijing Vital River Laboratory Animal Co. LTD;\nAdministration method and dosage: ICR mice were administered via caudal vein administration (2 mg/kg, 5% DMSO, pH 4.5 20% Captisol) and gavage administration (10 mg/kg, 5% DMSO, pH 4.5 20% Captisol).\nBlood sampling: Animals meeting the experimental requirements were selected prior to administrating, weighed and labeled. Mice were bound prior to blood sampling, and each administrated mice was bled at a predetermined time point (caudal vein administration: blood samples were collected at 0.083 h, 0.25 h, 0.5 h, 1 h, 2 h, 4 h, 6 h, 7.5 h and 24 h after administration, totally 9 time points; gavage administration: blood samples were collected at 0.083 h, 0.25 h, 0.5 h, 1 h, 2 h, 4 h, 6 h, 7.5 h and 24 h after administration, totally 9 time points), and about 100 µL blood samples were collected through the orbit. The blood was transferred to a 1.5 mL test tube pre-added with K2EDTA, centrifuged for 4 min (8000 rpm, 4°C), and the plasma was removed. The whole process was completed within 15 min after blood collection. All samples were stored in a refrigerator at -20°C until sample analysis. LC/MS/MS method was used to determine drug concentrations."}, "[4]": {"tested_on": "MV4 -11 acute myeloid leukemia", "assay": "In vivo pharmacodynamic experiment, MV4-11 subcutaneous xenograft", "parameters": "species or system BALB/c nude mice", "conditions": "Oral, Once daily", "protocol": "In vivo pharmacodynamic experiments were performed on BALB/c nude mice subcutaneously implanted with MV4 -11 acute myeloid leukemia […] xenograft (CDX) based on human tumor cell lines.\nProtocol: BALB/c nude mice, female, 6-10 weeks old, weighing approximately 20-23 grams, were maintained in a special pathogen-free environment and in individual ventilated cages (5 mice per cage, 2 cages of 10). All cages, bedding and water were disinfected prior to use. All animals had free access to standard certified commercial laboratory diets. […] Each mouse was implanted with tumor cells subcutaneously in the right flank (1×10^7 0.1 ml+Matrigel 0.1 ml) for tumor growth. When the average tumor volume reached about 165 cubic mm, randomization was performed according to body weight and tumor volume, and administration was started. The test compound was administered orally by gavage daily. Antitumor efficacy was determined by dividing the average tumor increase volume of animals treated with the compound by the average tumor increase volume of untreated animals.\nTumor volume was measured twice weekly with a two-dimensional caliper, and volumes were measured in cubic millimeters. Tumor volume TV=0.5a×b^2. Wherein, a is the long diameter of the tumor and b is the short diameter of the tumor.\nT/C(%) is the percentage of the relative tumor volume (RTV) between the treatment group and the control group at a certain time point. The calculation Formula is as follows: T/C% = TRTV/CRTV×100% (TRTV: mean RTV of treatment group; CRTV: mean RTV of vehicle control group; RTV=Vt/V0, V0 is tumor volume of the animal at grouping, Vt is tumor volume of the animal after treatment). mpk is mg/kg body weight.\nBody weight change (%) of tumor-bearing animals was calculated as follows: (body weight at measurement - body weight at grouping)/body weight at grouping × 100."}, "[5]": {"assay": "Hygroscopicity test according to Chinese Pharmacopoeia 2020, volume IV, 9103", "assay_type": "physicochemical", "text": "(§1) Chinese Pharmacopoeia 2020, volume IV, 9103 Guidelines for Hygroscopicity Test of Drugs specifies the definition of hygroscopicity characteristics and hygroscopicity weight gain: (1) deliquescence: absorbing sufficient water to form a liquid; (2) extremely hygroscopicity: hygroscopicity weight gain of not less than 15%; (3) hygroscopicity: hygroscopicity weight gain of less than 15% but not less than 2%; (4) slightly hygroscopicity: hygroscopicity weight gain of less than 2% but not less than 0.2%; (5) no or almost no hygroscopicity: moisture gain is less than 0.2%."}, "[6]": {"assay": "Rough solubility in pH 4.5 and pH 6.8 buffers at room temperature", "assay_type": "physicochemical"}, "[7]": {"assay": "Stability test: changes in crystal form (XRPD) under high temperature and accelerated conditions", "assay_type": "physicochemical", "conditions": "for changes in crystal form: 60°C (high temperature) and 40°C to 75% RH (accelerated), day 7, day 20, day 30, day 60", "protocol": "X-ray powder diffraction (XRPD): in the present disclosure, the above crystalline or amorphous powder X-ray diffraction pattern was obtained by a known method in the art using an ARL Equinox3000 X-ray powder diffraction analyzer.\n(§2) The changes in crystal form were detected at day 7, day 20, day 30, and day 60, respectively. […] (2) About 40 mg of phosphate crystal form I (prepared with reference to Example 1 of the present application) was weighed into a glass vial , and ethanol (1 mL) was added thereto, the glass vial was sealed and shaken at 50°C and 150 r/min for seven days, then centrifuged to collect the solid and the solvent was evaporated. […] Samples were taken and the related substances were determined. […]"}, "[8]": {"assay": "Solubility in 0.1 mol/L hydrochloric acid and pH 6.8 phosphate buffer, 24 h at 37°C", "assay_type": "physicochemical", "conditions": "for solubility: 1440 min"}, "[9]": {"assay": "Chemical stability: related substances after 80°C for one week with water added", "assay_type": "physicochemical", "conditions": "for Phosphate content (80°C, 7 d): 25 mg sample with 5 mg water, oven at 80°C"}, "[10]": {"assay": "Dynamic vapor sorption (DVS) measurement", "assay_type": "physicochemical", "conditions": "for weight gain due to moisture absorption: DVS, 80% RH, 25°C; for hygroscopicity: from DVS weight gain at 80% RH", "protocol": "Dynamic vapor sorption (DVS) curve: a dynamic vapor sorption curve was collected on a DVS Intrinsic of SMS (Surface Measurement Systems). The relative humidity at 25°C was calibrated using the deliquescent points of LiCl, Mg(NO3)2 and KCl.\nas §1"}, "[11]": {"assay": "Crystal form conversion: suspension shaking in ethanol", "assay_type": "physicochemical", "conditions": "ethanol (1 mL), sealed, shaken at 50°C and 150 r/min for seven days", "protocol": "as §2"}, "[12]": {"conditions": "listed as phosphate crystal form II of the compound of Formula (I)"}, "[13]": {"conditions": "listed as phosphate crystal form I of the compound of Formula (I)"}}}
{"compound": "C[C@H](c1cc(N[C@H]2CC[C@H](N)C2)n2nccc2n1)C1CCC1", "note": "[phosphate]", "values": [{"measurement": "solubility", "setting": "[1]", "value": "≤ 26.6", "unit": "mg/mL"}]}
{"compound": "C[C@H](c1cc(N[C@H]2CC[C@H](N)C2)n2nccc2n1)C1CCC1", "note": "[The compound of Formula (I), (1S,3S)-N1-(5-((S)-1-cyclobutylethyl)pyrazolo[1,5-a]pyrimidin-7-yl)cyclopentan-1,3-diamine]", "values": [{"measurement": "IC50", "setting": "[2]", "value": 0.012, "unit": "µM"}, {"measurement": "AUC(0-t)", "setting": "[3]; mouse, plasma, po, read-out: Area under the curve for oral administration AUC0-t", "value": 2960, "unit": "ng·h/mL"}, {"measurement": "Cmax", "setting": "[3]; mouse, plasma, po, read-out: Maximum oral plasma concentration Cmax", "value": 379, "unit": "ng/mL"}, {"measurement": "Mean tumor weight", "setting": "[4]; 12.5 mpk", "value": 0.17, "unit": "g"}, {"measurement": "T/C", "setting": "[4]; 12.5 mpk", "value": 21.50, "unit": "%"}, {"measurement": "Mean tumor weight", "setting": "[4]; 25 mpk", "value": 0.01, "unit": "g"}, {"measurement": "T/C", "setting": "[4]; 25 mpk", "value": 1.40, "unit": "%"}]}
{"compound": "C[C@H](c1cc(N[C@H]2CC[C@H](N)C2)n2nccc2n1)C1CCC1", "note": "[L-tartrate]", "values": [{"measurement": "hygroscopicity", "setting": "[5]", "value": "slight hygroscopicity"}]}
{"compound": "C[C@H](c1cc(N[C@H]2CC[C@H](N)C2)n2nccc2n1)C1CCC1", "note": "[L-tartrate crystal form I]", "values": [{"measurement": "Solubility in pH 4.5 buffer", "setting": "[6]; rough solubility, pH 4.5 buffer (acetic acid-sodium acetate system)", "value": "≤43.3", "unit": "mg/mL"}, {"measurement": "Solubility in pH 6.8 buffer", "setting": "[6]; rough solubility, pH 6.8 buffer (sodium dihydrogen phosphate-sodium hydroxide system)", "value": "≤21.8", "unit": "mg/mL"}, {"measurement": "changes in crystal form", "setting": "[7]", "value": "no obvious changes"}, {"measurement": "change of XRPD pattern", "setting": "[7]; accelerated conditions (40°C-75% RH), 7 days and 2 months (60 days), FIG. 15", "value": "no obvious change"}, {"measurement": "change of XRPD pattern", "setting": "[7]; high temperature conditions (60°C), 7 days and 2 months (60 days)", "value": "no obvious change"}]}
{"compound": "C[C@H](c1cc(N[C@H]2CC[C@H](N)C2)n2nccc2n1)C1CCC1", "note": "[Phosphate crystal form II]", "values": [{"measurement": "solubility", "setting": "[8]; 0.1N HCl", "value": 39.14, "unit": "mg/mL"}, {"measurement": "solubility", "setting": "[8]; pH 6.8 phosphate buffer", "value": 33.63, "unit": "mg/mL"}, {"measurement": "changes in crystal form", "setting": "[7]", "value": "no obvious changes"}, {"measurement": "Phosphate content (0 d)", "setting": "[9]", "value": 99.64}, {"measurement": "Phosphate content (80°C, 7 d)", "setting": "[9]", "value": 98.73}, {"measurement": "weight gain due to moisture absorption", "setting": "[10]", "value": 0.45, "unit": "%"}, {"measurement": "weight gain due to moisture absorption", "setting": "[10]; [12]", "value": 0.45, "unit": "%"}, {"measurement": "hygroscopicity", "setting": "[10]", "value": "slight hygroscopicity"}, {"measurement": "hygroscopicity", "setting": "[10]; [12]", "value": "slight hygroscopicity"}]}
{"compound": "CCC(CC)c1cc(N[C@H]2CC[C@H](N)C2)n2nccc2n1", "note": "[Compound D, reference compound]", "values": [{"measurement": "Area under the curve for oral administration AUC0-t", "setting": "[3]", "value": 1191, "unit": "ng·h/mL"}, {"measurement": "Maximum oral plasma concentration Cmax", "setting": "[3]", "value": 433, "unit": "ng/mL"}, {"measurement": "Mean tumor weight", "setting": "[4]; 12.5 mpk", "value": 0.35, "unit": "g"}, {"measurement": "T/C", "setting": "[4]; 12.5 mpk", "value": 45.04, "unit": "%"}, {"measurement": "Mean tumor weight", "setting": "[4]; 25 mpk", "value": 0.02, "unit": "g"}, {"measurement": "T/C", "setting": "[4]; 25 mpk", "value": 2.04, "unit": "%"}]}
{"compound": "C[C@H](c1cc(N[C@H]2CC[C@H](N)C2)n2nccc2n1)C1CCC1", "note": "[Phosphate crystal form I]", "values": [{"measurement": "solubility", "setting": "[6]; acetate buffer, pH 4.5, rough solubility, pH 4.5 buffer (acetic acid-sodium acetate system), read-out: Solubility in pH 4.5 buffer", "value": "≤ 33", "unit": "mg/mL"}, {"measurement": "solubility", "setting": "[6]; phosphate buffer, pH 6.8, rough solubility, pH 6.8 buffer (sodium dihydrogen phosphate-sodium hydroxide system), read-out: Solubility in pH 6.8 buffer", "value": "≤ 24.5", "unit": "mg/mL"}, {"measurement": "solubility at 24 h", "setting": "[8]; 0.1n hcl", "value": 22.5, "unit": "mg/mL"}, {"measurement": "solubility at 24 h", "setting": "[8]; phosphate buffer, pH 6.8, pH 6.8 phosphate buffer", "value": 22.5, "unit": "mg/mL"}, {"measurement": "changes in crystal form", "setting": "[7]", "value": "no obvious changes"}, {"measurement": "change of XRPD pattern", "setting": "[7]; high temperature conditions, 7 days and 30 days, Figure 16", "value": "no obvious change"}, {"measurement": "crystal form of the obtained solid (XRPD)", "setting": "[11]", "value": "phosphate crystal form II"}, {"measurement": "Phosphate content (0 d)", "setting": "[9]", "value": 99.64}, {"measurement": "Phosphate content (80°C, 7 d)", "setting": "[9]", "value": 98.66}, {"measurement": "weight gain due to moisture absorption", "setting": "[10]; [13]", "value": 9, "unit": "%"}, {"measurement": "hygroscopicity", "setting": "[10]; [13]", "value": "hygroscopicity (hygroscopicity weight gain of less than 15% but not less than 2%)"}]}
